This assay concerns the target T1, NMDA receptor (GRIN1 / GRIN2B, NR2B) expressed in HEK293 cells (Homo sapiens, UniProt Q05586+Q13224).
T1 construct: host or cells: HEK293
As to the kind of experiment: Reversal of Ro 25-6981-mediated suppression of Ca2+ response (fluo-8 fluorescence, FDSS) in HEK293 cells expressing GRIN1/GRIN2B. It is filed as cell-based. Particulars: % reversal of Ro 25-6981 suppression of co-agonist (glutamate/glycine) Ca2+ response, test concentration not given. On the procedure: HEK293 cells with constructs conferring stable expression of the GRIN1 gene and tetracycline-inducible expression of the GRIN2B gene (Chantest, Cleveland, Ohio) are grown to ˜75% confluence in tissue culture flasks at 37° C., 5% CO2. NR2B expression is induced by overnight incubation with 0.3-0.4 μg/ml tetracycline in the presence of 2.5 mM ARL-15896 at 37° C., followed by moving to 30° C. for 3-5 hours. Cells are next harvested using TripleExpressm (Life Technologies, Carlsbad, Calif.) according to the manufacturer's instructions, first removing culture medium, rinsing with Dulbecco's phosphate buffered saline (Ca^2+ and Mg^2+-free), and then adding the TripleExpressm reagent. Harvested cells are spun down, washed twice in Ca^2+- and Mg^2+-free Hank's Balanced Salt Solution with 20 mM HEPES and 10 mM glucose, pH 7.4 (HHnoCa solution), and counted with viability assessed using Trypan Blue. Cells are loaded with fluo-8 Ca^2+-sensitive dye in HHnoCa solution according to the manufacturer's directions (AAT Bioquest, Sunnyvale, Calif.), incubating at 37° C. for 20 minutes followed by 25 minutes at 22-25° C. After a wash in HHnoCa to remove extracellular dye, cells are resuspended in HHnoCa and plated at […] cells per well in a volume of 25 μl/well in 384 well black-wall, clear bottom plates (Hamamatsu, Middlesex, N.J.). Plates are then centrifuged to create a monolayer in the wells and stored in the dark until used.
Prior to analysis, compound plates are prepared with each compound at 6× the final desired concentration. From stock solutions at 10 mM in 100% DMSO, compounds are spotted in the desired amounts using an ECHO liquid handler (Labcyte, Sunnyvale, Calif.) into wells of a 384-well plate and then diluted with 50 μl of HHnoCa containing 750 nM Ro 25-6981 and 120 μM 5,7-dichlorokynurenic acid (both purchased from Tocris Bioscience (Bristol, England) and maintained as 10 mM stock solutions in 100% DMSO). To insure complete compound dissolution, these plates are then placed in an orbital shaker for at least one hour. Also prepared prior to the assay is a co-agonist plate containing HHnoCa with 240 μM glutamate, 2.4 mM glycine, and 7.2 mM CaCl2, which is 2.4× the desired final concentration of each reagent. Both the compound plate and co-agonist plate are 384-well polypropylene plates from Thermo Fisher Scientific, Waltham, Mass.
The assay is performed by first adding 10 μl solution from each well of the compound plate described above to the cell plate using a CyBiWell liquid handler (Analytik Jena AG, Jena, Germany), followed by 10 minutes pre-incubation in the dark. Cell plates are then loaded onto a Hamamatsu FDSS 6000 plate reader. After a 30-second baseline, 25 μl is added to each well from the co-agonist plate, and the fluorescence signal is recorded for another 2 minutes. FDSS software applies shading and autofluorescence correction, and resultant raw fluorescence measurements are exported in the form of a fluorescence ratio for each well to its own reading at time zero in the experiment. In each plate, negative control wells consist of wells where Ro 25-6981 and 5,7 dichlorokynurenic acid are present and co-agonist is applied in the absence of any added assay compound. Under these conditions, the Ca^2+ response to co-agonist is suppressed. Positive control wells also present in each plate contain 5,7 dichlorokynurenic acid but no Ro 25-6981, so that co-agonist addition results in a large Ca^2+ response. Compounds tested are evaluated on the basis of their ability to reverse the suppression of the Ca^2+ response mediated by Ro 25-6981, which is quantified as % reversal=100*(R−Rneg)/(Rpos−Rneg) where R is the fluorescence ratio for the test compound at the end of the experiment and Rneg and Rpos are the end ratios for the negative and positive controls, respectively. […]
T1 sequence (Q13224 27-1484, other chains not shown): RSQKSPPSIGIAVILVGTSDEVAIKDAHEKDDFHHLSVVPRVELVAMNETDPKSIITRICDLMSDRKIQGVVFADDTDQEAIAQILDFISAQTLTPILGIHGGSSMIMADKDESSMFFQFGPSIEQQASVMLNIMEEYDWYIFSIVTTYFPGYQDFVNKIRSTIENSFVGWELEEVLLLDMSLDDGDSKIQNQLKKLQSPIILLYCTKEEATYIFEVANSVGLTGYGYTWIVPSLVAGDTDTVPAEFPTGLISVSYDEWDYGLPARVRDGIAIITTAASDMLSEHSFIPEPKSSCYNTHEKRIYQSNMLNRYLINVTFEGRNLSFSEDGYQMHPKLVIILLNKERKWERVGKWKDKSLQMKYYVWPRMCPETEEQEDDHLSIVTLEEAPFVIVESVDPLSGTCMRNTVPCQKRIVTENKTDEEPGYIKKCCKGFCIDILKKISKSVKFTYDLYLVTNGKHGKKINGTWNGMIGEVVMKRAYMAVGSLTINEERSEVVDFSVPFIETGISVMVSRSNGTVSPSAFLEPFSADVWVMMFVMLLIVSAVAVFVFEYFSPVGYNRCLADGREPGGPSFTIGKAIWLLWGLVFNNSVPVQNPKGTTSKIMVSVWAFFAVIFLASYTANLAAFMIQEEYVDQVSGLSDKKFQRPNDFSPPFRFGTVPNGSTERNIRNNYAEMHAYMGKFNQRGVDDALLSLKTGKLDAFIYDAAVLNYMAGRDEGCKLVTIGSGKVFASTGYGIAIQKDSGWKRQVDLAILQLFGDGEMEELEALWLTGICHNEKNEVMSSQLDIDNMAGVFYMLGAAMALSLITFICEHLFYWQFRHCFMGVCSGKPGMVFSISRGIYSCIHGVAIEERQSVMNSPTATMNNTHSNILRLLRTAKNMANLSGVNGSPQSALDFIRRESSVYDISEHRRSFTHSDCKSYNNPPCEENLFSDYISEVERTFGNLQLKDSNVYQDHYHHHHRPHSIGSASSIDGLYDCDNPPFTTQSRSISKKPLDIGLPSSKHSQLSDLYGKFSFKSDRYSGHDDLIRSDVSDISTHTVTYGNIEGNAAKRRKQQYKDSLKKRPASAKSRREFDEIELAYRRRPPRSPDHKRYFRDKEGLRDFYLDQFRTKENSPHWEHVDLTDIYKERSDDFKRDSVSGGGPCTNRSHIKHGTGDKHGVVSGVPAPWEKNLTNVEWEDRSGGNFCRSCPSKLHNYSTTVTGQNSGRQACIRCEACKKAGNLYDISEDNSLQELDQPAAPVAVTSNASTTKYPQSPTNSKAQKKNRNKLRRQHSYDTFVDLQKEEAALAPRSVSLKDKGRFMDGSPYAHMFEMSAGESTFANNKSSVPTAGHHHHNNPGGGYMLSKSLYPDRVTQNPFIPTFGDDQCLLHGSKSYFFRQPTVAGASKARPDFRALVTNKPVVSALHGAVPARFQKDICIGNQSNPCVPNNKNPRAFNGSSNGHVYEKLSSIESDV
As for `O=C(Cn1cnc2scc(-c3ccc(F)cc3)c2c1=O)N1CC(F)(F)C1` [Example 7, 3-[2-(3,3-difluoroazetidin-1-yl)-2-oxoethyl]-5-(4-fluorophenyl)-3H,4H-thieno[2,3-d]pyrimidin-4-one], the “Avg Response Recovered (%)” value was 6%. The result for `Cc1ccc(-c2csc3ncn(CC(=O)N4CC(F)(F)C4)c(=O)c23)cc1` [Example 8, 3-[2-(3,3-difluoroazetidin-1-yl)-2-oxoethyl]-5-(4-methylphenyl)-3H,4H-thieno[2,3-d]pyrimidin-4-one] reads 5%; that for `O=C(Cn1cnc2scc(-c3ccc(Cl)c(C(F)(F)F)c3)c2c1=O)N1CC(F)(F)C1` [Example 6, 5-[4-chloro-3-(trifluoromethyl)phenyl]-3-[2-(3,3-difluoroazetidin-1-yl)-2-oxoethyl]-3H,4H-thieno[2,3-d]pyrimidin-4-one], 62%; that for `Cc1sc2ncn(CC(=O)N3CC(F)(F)C3)c(=O)c2c1-c1ccc(Cl)cc1` [Example 18, 5-(4-chlorophenyl)-3-[2-(3,3-difluoroazetidin-1-yl)-2-oxoethyl]-6-methyl-3H,4H-thieno[2,3-d]pyrimidin-4-one], 11%. For the compound `O=C(Cn1cnc2scc(-c3ccc(F)c(Cl)c3)c2c1=O)N1CC(F)(F)C1` [Example 9, 5-(3-chloro-4-fluorophenyl)-3-[2-(3,3-difluoroazetidin-1-yl)-2-oxoethyl]-3H,4H-thieno[2,3-d]pyrimidin-4-one], the “Avg Response Recovered (%)” value was found to be 49%. Turning to `O=C(Cn1cnc2scc(-c3ccc(Cl)cc3)c2c1=O)N1CC2(COC2)C1` [Example 3, 5-(4-chlorophenyl)-3-(2-{2-oxa-6-azaspiro[3.3]heptan-6-yl}-2-oxoethyl)-3H,4H-thieno[2,3-d]pyrimidin-4-one], the “Avg Response Recovered (%)” value is reported as 0%. Under `O=C(Cn1cnc2scc(-c3ccc(Cl)cc3)c2c1=O)N1CCC1` [Example 1, 3-[2-(azetidin-1-yl)-2-oxoethyl]-5-(4-chlorophenyl)-3H,4H-thieno[2,3-d]pyrimidin-4-one] stands 2%; under `CCC1(F)CN(C(=O)Cn2cnc3scc(-c4ccc(Cl)c(Cl)c4)c3c2=O)C1` [Example 15, 5-(3,4-dichlorophenyl)-3-[2-(3-ethyl-3-fluoroazetidin-1-yl)-2-oxoethyl]-3H,4H-thieno[2,3-d]pyrimidin-4-one], 103%; under `CC1(F)CN(C(=O)Cn2cnc3scc(-c4ccc(Cl)c(Cl)c4)c3c2=O)C1` [Example 11, 5-(3,4-dichlorophenyl)-3-[2-(3-fluoro-3-methylazetidin-1-yl)-2-oxoethyl]-3H,4H-thieno[2,3-d]pyrimidin-4-one], 152%.

As to `Cc1nc2scc(-c3ccc(Cl)cc3)c2c(=O)n1CC(=O)N1CC(F)(F)C1` [Example 19, 5-(4-chlorophenyl)-3-[2-(3,3-difluoroazetidin-1-yl)-2-oxoethyl]-2-methyl-3H,4H-thieno[2,3-d]pyrimidin-4-one], the “Avg Response Recovered (%)” value amounted to 5%. Under `COC1CN(C(=O)Cn2cnc3sc(-c4ccc(Cl)cc4)cc3c2=O)C1` [Example 17, 6-(4-chlorophenyl)-3-[2-(3-methoxyazetidin-1-yl)-2-oxoethyl]-3H,4H-thieno[2,3-d]pyrimidin-4-one] stands 24%; under `O=C(CCn1cnc2scc(-c3ccc(Cl)c(C(F)(F)F)c3)c2c1=O)N1CC(F)(F)C1` [Example 20, 5-[4-chloro-3-(trifluoromethyl)phenyl]-3-[3-(3,3-difluoroazetidin-1-yl)-3-oxopropyl]-3H,4H-thieno[2,3-d]pyrimidin-4-one], −1%; under `COC1CN(C(=O)Cn2cnc3scc(-c4ccc(Cl)cc4)c3c2=O)C1` [Example 4, 5-(4-chlorophenyl)-3-[2-(3-methoxyazetidin-1-yl)-2-oxoethyl]-3H,4H-thieno[2,3-d]pyrimidin-4-one], 1%. The result for `CCC1(F)CN(C(=O)Cn2cnc3scc(-c4ccc(F)c(Cl)c4)c3c2=O)C1` [Example 12, 5-(3-chloro-4-fluorophenyl)-3-[2-(3-ethyl-3-fluoroazetidin-1-yl)-2-oxoethyl]-3H,4H-thieno[2,3-d]pyrimidin-4-one] reads 149%. Under `O=C(Cn1c(C(F)(F)F)nc2scc(-c3ccc(Cl)cc3)c2c1=O)N1CC(F)(F)C1` [Example 21, 5-(4-chlorophenyl)-3-[2-(3,3-difluoroazetidin-1-yl)-2-oxoethyl]-2-(trifluoromethyl)-3H,4H-thieno[2,3-d]pyrimidin-4-one] stands 0%. `O=C(Cn1cnc2sc(-c3ccc(Cl)cc3)cc2c1=O)N1CCC1` [Example 16, 3-[2-(azetidin-1-yl)-2-oxoethyl]-6-(4-chlorophenyl)-3H,4H-thieno[2,3-d]pyrimidin-4-one]: the “Avg Response Recovered (%)” value worked out at 23%.

Turning to `O=C(Cn1cnc2scc(-c3ccc(F)c(Cl)c3)c2c1=O)N1CC(F)(CF)C1` [Example 13, 5-(3-chloro-4-fluorophenyl)-3-{2-[3-fluoro-3-(fluoromethyl)azetidin-1-yl]-2-oxoethyl}-3H,4H-thieno[2,3-d]pyrimidin-4-one], the “Avg Response Recovered (%)” value was 141%. The result for `CC1(F)CN(C(=O)Cn2cnc3scc(-c4ccc(F)c(Cl)c4)c3c2=O)C1` [Example 14, 5-(3-chloro-4-fluorophenyl)-3-[2-(3-fluoro-3-methylazetidin-1-yl)-2-oxoethyl]-3H,4H-thieno[2,3-d]pyrimidin-4-one] reads 165%; that for `O=C(Cn1cnc2scc(-c3ccc(Cl)c(Cl)c3)c2c1=O)N1CC(F)(CF)C1` [Example 10, 5-(3,4-dichlorophenyl)-3-{2-[3-fluoro-3-(fluoromethyl)azetidin-1-yl]-2-oxoethyl}-3H,4H-thieno[2,3-d]pyrimidin-4-one], 121%; that for `O=C(Cn1cnc2scc(-c3ccc(C(F)(F)F)cc3)c2c1=O)N1CC(F)(F)C1` [Example 5, 3-[2-(3,3-difluoroazetidin-1-yl)-2-oxoethyl]-5-[4-(trifluoromethyl)phenyl]-3H,4H-thieno[2,3-d]pyrimidin-4-one], 11%.

In the case of `O=C(Cn1cnc2scc(-c3ccc(Cl)cc3)c2c1=O)N1CC(F)(F)C1` [Example 2, 5-(4-chlorophenyl)-3-[2-(3,3-difluoroazetidin-1-yl)-2-oxoethyl]-3H,4H-thieno[2,3-d]pyrimidin-4-one], the “Avg Response Recovered (%)” value came out at 7%.

(Values after US11648253B2, “Thienopyrimidinone NMDA receptor modulators and uses thereof” (Novartis AG, priority 2015, dated 2023).)
